Reference: PMC3830801, “Synthesis and Biological Evaluation of 2-Hydroxy-3-[(2-aryloxyethyl)amino]propyl 4-[(Alkoxycarbonyl)amino]benzoates” (The Scientific World Journal, 2013)

Assays:
[1] = Lipophilicity determination by HPLC (capacity factor k / log k); type: physicochemical; conditions: RP-HPLC, C18, MeOH 55%/H2O 45%
Text: A Waters Alliance 2695 XE HPLC separation module and a Waters Photodiode Array Detector 2996 (Waters Corp., Milford, MA, USA) were used. A Symmetry C18 5 μm, 4.6 × 250 mm, part number WAT054275 (Waters Corp., Milford, MA, USA) chromatographic column was used. The HPLC separation process was monitored by Empower 2 Chromatography Data Software, Waters 2009 (Waters Corp., Milford, MA, USA). A mixture of MeOH p.a. (55%) and H2O-HPLC–Milli-Q Grade (45%) was used as a mobile phase. The total flow of the column was 1.0 mL/min, injection volume 30 μL, column temperature 45°C, and sample temperature 10°C. The detection wavelength of 210 nm was chosen. The KI methanolic solution was used for the dead time (t D) determination. Retention times (t R) were measured in minutes. The capacity factors k were calculated using the Empower 2 Chromatography Data Software according to formula k = (t R − t D)/t D, where t R is the retention time of the solute, whereas t D denotes the dead time obtained using an unretained analyte. logk, calculated from the capacity factor k, is used as the lipophilicity index converted to logP scale.

[2] = system: Mycobacterium avium subsp. paratuberculosis CIT03; assay: In vitro antimycobacterial evaluation (alamarBlue, MIC); type: cell-based; conditions: Mycobacterium avium, 264 h; MIC/IC90, 11 days incubation, 37°C
Description: (§1) Clinical isolates of Mycobacterium avium subsp. paratuberculosis CIT03 and M. intracellulare were grown in Middlebrook broth (MB), supplemented with oleic-albumin-dextrose-catalase supplement (OADC, Becton Dickinson, UK) and mycobactin J (2 μg/mL). Identification of these isolates was performed using biochemical and molecular protocols. At log phase growth, the culture (10 mL) was centrifuged at 15,000 rpm/20 min using a bench top centrifuge (Model CR 4–12, Jouan Inc., UK). Following the removal of the supernatant, the pellet was washed in fresh Middlebrook 7H9GC broth and resuspended in fresh supplemented MB (10 mL). The turbidity was adjusted to match McFarland standard no. 1 (3 × 10^8 cfu) with MB broth. A further 1 : 20 dilution of the culture was then performed in MB broth. The antimicrobial susceptibility of all four mycobacterial species was investigated in a 96-well plate format. In these experiments, sterile deionised water (300 μL) was added to all outer-perimeter wells of the plates to minimize evaporation of the medium in the test wells during incubation. Each evaluated compound (100 μL) was incubated with each of the mycobacterial species (100 μL). Dilutions of each compound were prepared in duplicate. For all synthesized compounds, final concentrations ranged from 1,000 μg/mL to 8 μg/mL. All compounds were prepared in DMSO, and subsequent dilutions were made in supplemented MB. The plates were sealed with parafilm and incubated at 37°C, for 7 days in the case of M. intracellulare and 11 days in the case of M. avium paratuberculosis. Following incubation, a 10% addition of alamarBlue (AbD Serotec) was mixed with each well, and readings at 570 nm and 600 nm were taken, initially for background subtraction and subsequently after 24 h reincubation. […] For noninterfering compounds, a blue colour in the well was interpreted as an absence of growth, and a pink colour was scored as growth. The MIC was initially defined as the lowest concentration which prevented a visual colour change from blue to pink. […] The MIC/IC90 value is routinely and widely used in bacterial assays and is a standard detection limit according to the Clinical and Laboratory Standards Institute (CLSI, http://www.clsi.org/).

[3] = system: Mycobacterium intracellulare; assay: as above; type: cell-based; conditions: Mycobacterium intracellulare, 168 h; MIC/IC90, 7 days incubation, 37°C
Description: as §1

[4] = pKa determination by RP-HPLC; type: physicochemical; conditions: from retention factor vs pH of mobile phase, recalculated for water medium
[5] = system: spinach chloroplasts; assay: Photosynthetic electron transport (PET) in spinach chloroplasts (DCPIP photoreduction); type: biochemical, Spinacia oleracea L.; conditions: DMSO 8% v/v
Description: Chloroplasts were prepared from spinach (Spinacia oleracea L.) according to Masarovičová and Král'ová [38]. The inhibition of photosynthetic electron transport (PET) in spinach chloroplasts was determined spectrophotometrically (Genesys 6, Thermo Scientific, USA), using an artificial electron acceptor 2,6-dichlorophenol-indophenol (DCIPP) according to Král'ová et al., and the rate of photosynthetic electron transport was monitored as a photoreduction of DCPIP. The measurements were carried out in phosphate buffer (0.02 mol/L, pH 7.2) containing sucrose (0.4 mol/L), MgCl2 (0.005 mol/L), and NaCl (0.015 mol/L). The chlorophyll content was 30 mg/L in these experiments, and the samples were irradiated (~100 W/m^2 with 10 cm distance) with a halogen lamp (250 W) using a 4 cm water filter to prevent warming of the samples (suspension temperature 22°C). The studied compounds were dissolved in DMSO due to their limited water solubility, and the concentration of DMSO was constant (8% (v/v)) in control as well as in amphiphile-treated samples.

[6] = system: human monocytic leukaemia THP-1 cell line; assay: In vitro cytotoxicity assay (WST-1); type: cell-based; conditions: 24 h; for increase in LD50 relative to cytotoxicity: human, 30 μmol/L
Description: The human monocytic leukaemia THP-1 cell line was purchased from the European Collection of Cell Cultures (ECACC, Salisbury, UK). […] Cells were passaged at approximately one-week intervals. […] The maximum concentration of DMSO in the assays never exceeded 0.1%. Cytotoxicity of the compounds was determined using a WST-1 assay kit (Roche Diagnostics, Mannheim, Germany), as described previously. The median lethal dose values, LD50, were deduced through the production of a dose-response curve. All data from three independent experiments were evaluated using GraphPad Prism 5.00 software (GraphPad Software, San Diego, CA, USA, http://www.graphpad.com).

| SMILES | Log k [1] | MIC [2] [µM] | MIC [3] [µM] | pKa [4] | effect on the rate of PET (in words) [5] | increase in LD50 relative to cytotoxicity [6] [%] | LD50 ([6]; THP-1 cells, highest dose 30 μmol/L) [µmol/L] |
| --- | --- | --- | --- | --- | --- | --- | --- |
| CCCCOC(=O)Nc1ccc(C(=O)OCC(O)CNCCOc2ccc(OC)cc2)cc1.Cl (centres unmarked) [Compound 20d, 2-Hydroxy-3-[2-(4-methoxyphenoxy)ethylamino]-propyl 4-(Butoxycarbonylamino)benzoate Hydrochloride] | 0.4241 | 62 | 121 | 8.18 | significantly stimulated the rate of PET | – | – |
| CCCCOC(=O)Nc1ccc(C(=O)OCC(O)CNCCOc2c(OC)cccc2OC)cc1.Cl (centres unmarked) [Compound 21d, 2-Hydroxy-3-[2-(2,6-dimethoxyphenoxy)ethylamino]-propyl 4-(Butoxycarbonylamino)benzoate Hydrochloride] | 0.4177 | 59 | 114 | 8.58 | significantly stimulated the rate of PET | 61 | – |
| CCCCOC(=O)Nc1ccc(C(=O)OCC(O)CNCCOc2ccccc2F)cc1.Cl (centres unmarked) [Compound 22d, 3-[2-(2-Fluorophenoxy)ethylamino]-2-hydroxypropyl 4-(Butoxycarbonylamino)benzoate Hydrochloride] | 0.4341 | 124 | 124 | 7.96 | significantly stimulated the rate of PET | – | – |
| CCCCOC(=O)Nc1ccc(C(=O)OCC(O)CNCCOc2ccc(F)cc2)cc1.Cl (centres unmarked) [Compound 23d, 3-[2-(4-Fluorophenoxy)ethylamino]-2-hydroxypropyl 4-(Butoxycarbonylamino)benzoate Hydrochloride] | 0.4365 | 64 | 258 | 8.08 | significantly stimulated the rate of PET | 96 | – |
| CC[C@@]1(O)C(=O)OCc2c1cc1n(c2=O)Cc2cc3ccccc3nc2-1 [camptothecin, reference compound] | – | – | – | – | – | – | 0.16 ± 0.07 |
